Experimental data published in US11844768B2, “Terameprocol and nordihydroguaiaretic acid (NDGA) derivatives as coronavirus anti-viral agents” (Erimos Pharmaceuticals, LLC, priority 2021, dated 2023).
Where a name gives a salt, the structure may show the parent alone. Read-outs that look alike come from different tables or passages of the source.

How the values were obtained:
[1] = tested on: SARS-CoV-2; type: cell-based; details: 48 hours, Calu-3, FIG. 6
[2] = tested on: SARS-CoV-2-infected Vero E6 cells; test: Cell cytotoxicity (cell lysis / plaques, monoclonal antibody) of SARS-CoV-2-infected Vero E6 cells; type: cell-based, African green monkey; details: 48 hours; for cell cytotoxicity (cell lysis): FIG. 5
Method: With reference to FIG. 5 (Example 3), Vero E6 were infected with SARS-CoV-2 virus, treated with 0.2 μM, 1.0 μM, 5.0 μM, 20 μM, and 80 μM of TMP, and tested for cell cytotoxicity using monoclonal antibodies after 48 hours. Infected Vero E6 cells without treatment were used as a negative control and infected Vero E6 cells treated with CM were used as a positive control. Here, the cells were tested for cytotoxicity via the formation of plaques identified with a monoclonal antibody.
(§1) Vero E6 African green monkey kidney epithelial cells were cultured as host cells for the SARS-CoV-2 coronavirus in 96-well cell culture plates. 500-1500 units of SARS-CoV-2 virus in Eagle's minimal essential medium (EMEM) with 10% Fetal Bovine Serum (FBS), L-glutamine, and Na-pyruvate phosphate buffered saline was introduced to the Vero E6 cell culture wells as described in Ogando et al., Journal of General Virology (2020) (available at biorxiv.org/content/10.1101/2020.04.20.049924v1). […] Plaques were identified using a plaque assay with the mouse monoclonal antibody J2 (Ogando et al., supra). Viral RNA was also isolated from the media supernatant and virus copy number was determined by RT-PCR for estimation of virus copy number following treatment.
Stock solutions of TMP were prepared by dissolving TMP in 100% DMSO at 50 mM with warming at 70° C. for 3 hours. TMP was added to the SARS-CoV-2-infected Vero E6 cells in the following concentrations: 0.2 μM, 1 μM, 5 μM, 20 μM, and 80 μM. Untreated infected Vero E6 cells and infected Vero E6 treated with CM were used as negative and positive controls, respectively. 48 hours following treatment with TMP, 400 μL of supernatant was collected from each plate well and viral RNA (no cellular RNA was collected) and virus copy number were measured from the extracted DNA by the ORIG3N RT-PCR test for the 1 μM, 5 μM, and 20 μM TMP-treatment wells as well as for the negative and positive controls. Separately, cell lysis was measured for all five TMP-treatment wells as well as for the negative and positive controls. The assay was repeated two additional times. FIGS. 4A-4C show the mean±SD of the number of copies of SARS-CoV-2 RNA measured from the cell supernatant for the three assay runs of the Vero E6 cells.

[3] = tested on: NL63-infected LLC-MK2 cells; test: LDH release cytotoxicity assay on NL63-infected LLC-MK2 cells; type: cell-based, rhesus monkey; details: five days
Method: With reference to FIG. 2 (Example 2), the exposure time of TMP on NL63-infected LLC-MK2 cells was measured to determine if long-term exposure to TMP could result in cell cytotoxicity. Cytotoxicity to the host cells can be caused by viral infection, which causes cell lysis, or by toxicity of test compounds to host cells. Cytotoxicity is measured by the release of lactate dehydrogenase (LDH), a cellular housekeeping enzyme, and its conversion of a colored substrate in the final reaction. Cells that die or lyse release LDH into the extracellular milieu; thus, the more LDH that is released by dying cells, the higher the LDH reading.
LLC-MK2 cells were inoculated with NL63 as provided in Example 1. The cells were tested for cytotoxicity through the release of lactate dehydrogenase (LDH), the latter of which was measured and quantified with an LDH assay multiplate reader. The cytotoxicity assay was performed three times and values for each treatment group and controls were averaged across assays, as show in FIGS. 2 and 3.

[4] = tested on: SARS-CoV-2; type: cell-based
[5] = tested on: SARS-CoV-2-infected Calu-3 cells; test: Cell cytotoxicity (plaques, monoclonal antibody) of SARS-CoV-2-infected Calu-3 cells; type: cell-based, human; details: 48 hours, Calu-3, FIG. 6
Method: With reference to FIG. 6 (Example 4), the TMP-treatment protocol for the Vero E6 cells was repeated with Calu-3 cells (human non-small-cell lung cancer cells) infected with SARS-CoV-2. Infected Calu-3 cells without treatment were used as a negative control and infected Calu-3 cells treated with CM were used as a positive control. A monoclonal antibody was used to identify cell cytotoxicity.
as §1, with “Calu-3 human non-small-cell lung cancer” for “Vero E6 African green monkey kidney epithelial”, “supra.” for “Journal of General Virology (2020) (available at biorxiv.org/content/10.1101/2020.04.20.049924v1).”
Stock solutions of TMP were prepared by dissolving TMP in 100% DMSO at 50 mM with warming at 70° C. for 3 hours. TMP was added to the SARS-CoV-2-infected Vero E6 cells in the following concentrations: 5 μM, 20 μM, and 40 μM. Untreated infected Vero E6 cells and infected Vero E6 treated with CM were used as negative and positive controls, respectively. 48 hours following treatment with TMP, 400 μL of supernatant was collected from each plate well and viral RNA (no cellular RNA was collected) and virus copy number were measured determined from the extracted DNA by the ORIG3N RT-PCR test. The assay was repeated two additional times.

[6] = tested on: HCoV-NL63; details: 48 hours; for cell toxicity resulting from the TMP treatment: LLC-MK2 cells

`CN(C)C(=O)COC(=O)Cc1ccc(OC(=O)c2ccc(NC(=N)N)cc2)cc1` [CM, camostat mesylate, reference compound] was tested, and the viral replication ([1]; CM control) was “almost zero viral replication”, the “cell cytotoxicity (cell lysis)” value ([2]; CM positive control) was “no appreciable cytotoxic effects” and the “cell toxicity (LDH release)” value ([3]; CM positive control, FIG. 2) was “no cell toxicity”.

With `COc1ccc(C[C@@H](C)[C@@H](C)Cc2ccc(OC)c(OC)c2)cc1OC` [TMP, Tetra-O-methyl NDGA] the viral activity ([4]; 1 μM TMP, 48 hours, FIGS. 4B and 4C) was “increase in viral activity”, the viral replication ([4]; 5 μM TMP, 48 hours, FIGS. 4B and 4C) was “zero viral replication” and the viral replication ([4]; 20 μM TMP, 48 hours, FIG. 4A) was “almost zero viral replication”. The viral replication ([4]; 20 μM TMP, 48 hours, FIGS. 4B and 4C) was “reduction in viral replication comparable to the CM-treated positive control”, the “dose response of viral replication” value ([4]; FIG. 4A, 48 hours, Vero E6) was “linear dose response” and the “optimal TMP treatment range” value ([4]; SARS-CoV-2-infected Vero E6 in vitro, FIGS. 4A-4C) was 5 µM. The “reduction in the mean number of copies of SARS-CoV-2 compared to the negative control” value ([1]; 5 μM TMP) was 25%, the viral replication ([1]; 20 μM TMP) was “almost zero viral replication” and the viral replication ([1]; 40 μM TMP) was “almost zero viral replication”. For the same molecule, the “cell cytotoxicity (cell lysis)” value ([2]; 0.2 μM TMP) was “no appreciable cytotoxic effects”, the “cell cytotoxicity (cell lysis)” value ([2]; 1.0 μM TMP) was “no appreciable cytotoxic effects” and the “cell cytotoxicity (cell lysis)” value ([2]; 5 μM TMP) was “no appreciable cytotoxic effects”. The “cell cytotoxicity (cell lysis)” value ([2]; 20 μM TMP) was “reduced in comparison to the 80 μM treatment”, the “cell toxicity resulting from the TMP treatment” value (from here on “cell toxicity resulting”) ([2]; 20 μM TMP, FIGS. 4B and 4C runs) was “no discernable cell toxicity” and the “cell cytotoxicity (cell lysis)” value ([2]; 80 μM TMP) was “high percentage of cell lysis”. The “cell lysis (LDH release)” value ([3]; 0.2 μM TMP, FIG. 3) was 1-2%, the “cell lysis (LDH release)” value ([3]; 5 μM TMP, FIG. 2) was 10% and the “cell lysis (LDH release)” value ([3]; 5 μM TMP, FIG. 3) was about 20%. The “cell lysis (LDH release)” value ([3]; 20 μM TMP, FIG. 2) was 20-30%, the “cell lysis (LDH release), observation” value ([3]; 80 μM TMP, FIG. 2) was “cells separating from the plate” and the “cell lysis (LDH release)” value ([3]; increased TMP concentration (between 0.2 and 5 μM; FIG. 3 series 0.2, 1, 5 μM)) was “approximately 8%”. For the same molecule, the cell cytotoxicity ([5]; 5 μM TMP) was “non-detectable cytotoxicity”, the cell cytotoxicity ([5]; 20 μM TMP) was “non-detectable cytotoxicity” and the cell cytotoxicity ([5]; 40 μM TMP) was “only slightly increased cytotoxicity”. The viral activity ([6]; 0.2 μM TMP, FIG. 1) was “partial reduction in viral activity”, the “viral RNA copy number (mean+standard deviation)” value ([6]; 0.2 μM TMP, NL63-infected LLC-MK2 cells, FIG. 1, P=0.004 versus negative control) was 50,882+2,296 copies and the viral activity ([6]; 1 μM TMP, FIG. 1) was “almost no viral activity”. For the same molecule, the “cell toxicity resulting” value ([6]; 1 μM TMP) was “no discernable cell toxicity”, the viral activity ([6]; 5 μM TMP, FIG. 1) was “almost no viral activity” and the “cell toxicity resulting” value ([6]; 5 μM TMP) was “no discernable cell toxicity”. The “dose response of viral RNA” value ([6]; 0.2, 1 and 5 μM TMP, FIG. 1) was “linear response that plateaued at 1 μM TMP”.
